Measurements reported in patent publication US11952363B2, “Piperazine compounds for the treatment of autoimmune disease” (Hoffmann-La Roche Inc., priority 2018, dated 2024).
pIC50: −log10 of the molar value.

Legend:
[1] = Human microsomal stability assay; type: in vitro ADME; settings: human liver microsomes 0.5 mg/mL, 1 μM test compound, 37° C., pH 7.4
Procedure: Human liver microsomes (Cat.NO.: 452117, Corning, USA) were preincubated with test compound for 10 minutes at 37° C. in 100 mM potassium phosphate buffer, pH 7.4. The reactions were initiated by adding NADPH regenerating system. The final incubation mixtures contained 1 μM test compound, 0.5 mg/mL liver microsomal protein, 1 mM MgCl2, 1 mM NADP, 1 unit/mL isocitric dehydrogenase and 6 mM isocitric acid in 100 mM potassium phosphate buffer, pH 7.4. After incubation times of 0, 3, 6, 9, 15 and 30 minutes at 37° C., 300 μL of cold ACN (including internal standard) was added to 100 μL incubation mixture to terminate the reaction. Following precipitation and centrifugation, 100 uL supernatant will be taken out and added 300 uL water. The amount of compound remaining in the samples was determined by LC-MS/MS. Controls of no NADPH regenerating system at zero and 30 minutes were also prepared and analyzed.

human TLR7 = target: T1, human TLR7 (Homo sapiens, UniProt Q9NYK1); test: HEK293-Blue-hTLR-7 cells assay (SEAP reporter, R848 stimulation); type: cell-based; settings: HEK293-Blue-hTLR7 cells, R848 ligand, 20 hrs incubation; read-out: HEK/hTLR7 IC50
T1 sequence (Q9NYK1 27-1049): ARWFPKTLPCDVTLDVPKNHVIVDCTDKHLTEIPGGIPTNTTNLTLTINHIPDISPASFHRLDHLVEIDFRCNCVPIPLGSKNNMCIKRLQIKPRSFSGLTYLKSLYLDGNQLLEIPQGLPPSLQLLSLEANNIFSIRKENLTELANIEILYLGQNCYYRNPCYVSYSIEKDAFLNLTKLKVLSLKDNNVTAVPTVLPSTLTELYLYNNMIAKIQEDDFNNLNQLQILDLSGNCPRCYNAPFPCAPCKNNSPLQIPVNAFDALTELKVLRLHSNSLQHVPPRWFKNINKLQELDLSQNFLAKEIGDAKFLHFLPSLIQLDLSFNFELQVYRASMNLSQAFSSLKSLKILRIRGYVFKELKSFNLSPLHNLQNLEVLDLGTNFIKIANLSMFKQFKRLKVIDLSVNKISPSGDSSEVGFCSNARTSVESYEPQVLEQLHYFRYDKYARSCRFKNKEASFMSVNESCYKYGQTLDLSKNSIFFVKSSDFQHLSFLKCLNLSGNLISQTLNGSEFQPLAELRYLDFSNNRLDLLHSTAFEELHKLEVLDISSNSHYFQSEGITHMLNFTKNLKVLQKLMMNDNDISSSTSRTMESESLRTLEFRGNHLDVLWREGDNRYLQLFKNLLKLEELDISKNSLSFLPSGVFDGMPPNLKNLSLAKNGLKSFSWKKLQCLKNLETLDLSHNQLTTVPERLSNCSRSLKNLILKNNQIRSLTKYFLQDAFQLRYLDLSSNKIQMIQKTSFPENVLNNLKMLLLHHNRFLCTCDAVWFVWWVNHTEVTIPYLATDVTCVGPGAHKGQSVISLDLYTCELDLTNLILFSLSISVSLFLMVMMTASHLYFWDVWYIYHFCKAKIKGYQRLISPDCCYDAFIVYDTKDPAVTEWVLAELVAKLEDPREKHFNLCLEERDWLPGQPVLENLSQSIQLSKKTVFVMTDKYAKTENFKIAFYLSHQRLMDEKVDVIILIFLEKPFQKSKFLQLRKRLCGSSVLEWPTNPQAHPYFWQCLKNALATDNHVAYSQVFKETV
Procedure: The following tests were carried out in order to determine the activity of the compounds of formula (I) in HEK293-Blue-hTLR-7/8/9 cells assay.
A stable HEK293-Blue-hTLR-7 cell line was purchased from InvivoGen (Cat.#: hkb-htlr7, San Diego, California, USA). These cells were originally designed for studying the stimulation of human TLR7 by monitoring the activation of NF-κB. A SEAP (secreted embryonic alkaline phosphatase) reporter gene was placed under the control of the IFN-β minimal promoter fused to five NF-κB and AP-1-binding sites. The SEAP was induced by activating NF-κB and AP-1 via stimulating HEK-Blue hTLR7 cells with TLR7 ligands. Therefore the reporter expression was declined by TLR7 antagonist under the stimulation of a ligand, such as R848 (Resiquimod), for incubation of 20 hrs. The cell culture supernatant SEAP reporter activity was determined using QUANTI-Blue™ kit (Cat.#: rep-qb1, Invivogen, San Diego, Ca, USA) at a wavelength of 640 nm, a detection medium that turns purple or blue in the presence of alkaline phosphatase.
HEK293-Blue-hTLR7 cells were incubated at a density of 250,000˜450,000 cells/mL in a volume of 170 μL in a 96-well plate in Dulbecco's Modified Eagle's medium (DMEM) containing 4.5 g/L glucose, 50 U/mL penicillin, […], […], 2 mM L-glutamine, 10% (v/v) heat-inactivated fetal bovine serum with addition of 20 μL test compound in a serial dilution in the presence of final DMSO at 1% and 10 μL of 20 uM R848 in above DMEM, perform incubation under 37° C. in a CO2 incubator for 20 hrs. Then 20 μL of the supernatant from each well was incubated with […] Quanti-blue substrate solution at 37° C. for 2 hrs and the absorbance was read at 620-655 nm using a spectrophotometer. The signalling pathway that TLR7 activation leads to downstream NF-κB activation has been widely accepted, and therefore similar reporter assay was modified for evaluating TLR7 antagonist.

Row | SMILES | Clearance of Human microsome [1] | pIC50 (human TLR7)
1 | CC1CN(c2ccc(C#N)c3ncccc23)CCN1CC(=O)Nc1ccc(N2CCNCC2)cc1 (centres unmarked) [Example 17, 2-[4-(8-Cyano-5-quinolyl)-2-methyl-piperazin-1-yl]-N-(4-piperazin-1-ylpheny)acetamide] | 6.9 mL/min/kg | 7.06
2 | C[C@@H]1CN(c2ccc(C#N)c3ncccc23)C[C@@H](C)N1Cc1ccc(N2CCNCC2)cc1 [Example 2] | 8.0 mL/min/kg | 7.06
3 | C[C@@H]1CN(c2ccc(C#N)c3ncccc23)C[C@H](C)N1Cc1ccc(N[C@@H]2CNC[C@@H]2F)cn1 [Example 9, 5-[(3R,5S)-3,5-Dimethyl-4-[[5-[[(3R,4S)-4-fluoropyrrolidin-3-yl]amino]-2-pyridyl]methyl]piperazin-1-yl]quinoline-8-carbonitrile] | 12.8 mL/min/kg | 7.29
4 | C[C@@H]1CN(c2ccc(C#N)c3ncccc23)C[C@H](C)N1Cc1ccc(N2CCN(C)CC2)cn1 [Example 7, 5-[(3S,5R)-3,5-dimethyl-4-[[5-(4-methylpiperazin-1-yl)-2-pyridyl]methyl]piperazin-1-yl]quinoline-8-carbonitrile] | – | 7.52
5 | C[C@@H]1CN(c2ccc(C#N)c3ncccc23)C[C@H](C)N1Cc1ccc(N2CCNCC2)cn1 [Example 5, 5-[(3S,5R)-3,5-Dimethyl-4-[(5-piperazin-1-yl-2-pyridyl)methyl]piperazin-1-yl]quinoline-8-carbonitrile] | – | 7.92
6 | C[C@@H]1CN(c2ccc(C#N)c3ncccc23)C[C@H](C)N1Cc1ccc(N2CCN(C(=O)C3CCCN3)CC2)cn1 (stereo partly drawn) [Example 10, 5-[(3R,5S)-3,5-Dimethyl-4-[[5-[4-(pyrrolidine-2-carbonyl)piperazin-1-yl]-2-pyridyl]methyl]piperazin-1-yl]quinoline-8-carbonitrile] | – | 7.16
7 | C[C@@H]1CN(c2ccc(C#N)c3ncccc23)C[C@H](C)N1CC(=O)N1CCc2ccc(N3CCNCC3)cc2C1 [Example 15, 5-[(3R,5S)-3,5-dimethyl-4-[2-pxp-2-(7-piperazin-1-yl-3,4-dihydro-1H-isoquinolin-2-yl)ethyl]piperazin-1-yl]quinoline-8-carbonitrile] | – | 7.17
8 | C[C@@H]1CN(c2ccc(C#N)c3ncccc23)C[C@H](C)N1Cc1ccc(N2CCNCC2)cc1 [Example 1, 5-[(3R,5S)-3,5-Dimethyl-4-[(4-piperazin-1-ylphenyl)methyl]piperazin-1-yl]quinoline-8-carbonitrile] | 11.2 mL/min/kg | 7.28
9 | C[C@@H]1CN(c2ccc(C#N)c3ncccc23)C[C@H](C)N1CC(=O)N1CCc2nc(N3CCNCC3)ccc2C1 [Example 13, 5-[(3R,5S)-3,5-Dimethyl-4-[2-oxo-2-(2-piperazin-1-yl-7,8-dihydro-5H-1,6-naphthyridin-6-yl)ethyl]piperazin-1-yl]quinoline-8-carbonitrile] | – | 7.25
10 | CC1CN(c2ccc(C#N)c3ncccc23)CCN1CC(=O)Nc1ccc2c(c1)CCNC2 (centres unmarked) [Example 18, 2-[4-(8-Cyano-5-quinolyl)-2-methyl-piperazin-1yl]-N-(1,2,3,4-tetrahydroisoquinolin-6-yl)acetamide] | 6.3 mL/min/kg | 7.22
11 | C[C@@H]1CN(c2ccc(C#N)c3ncccc23)C[C@H](C)N1Cc1ccc(N2CCNCC2)nc1 [Example 3, 5-[(3R,5S)-3,5-Dimethyl-4-[(6-piperazin-1-yl-3-pyridyl)methyl]piperazin-1-yl]quinoline-8-carbonitrile] | 11.6 mL/min/kg | 7.72
12 | C[C@@H]1CN(c2ccc(C#N)c3ncccc23)C[C@H](C)N1CC(=O)N1CCc2cc(N3CCNCC3)ccc2C1 [Example 14, 5-[(3R,5S)-3,5-Dimethyl-4-[2-oxo-2-(6-piperazin-1-yl-3,4-dihyrdo-1H-isoquinolin-2-yl)ethyl]piperazin-1-yl]quinoline-8-carbonitrile] | 12.9 mL/min/kg | 7.10
13 | C[C@@H]1CN(c2ccc(C#N)c3ncccc23)C[C@H](C)N1Cc1ccc(N2CCN(C(=O)CN(C)C)CC2)cn1 [Example 11, 5-[(3S,5R)-4-[[5-[4-[2-(Dimethylamino)acetyl]piperazin-1-yl]-2-pyridyl]methyl]-3,5-dimethyl-piperazin-1-yl]quinoline-8-carbonitrile] | – | 7.30

More lines, in order of rising pIC50 (human TLR7), values ahead:

Row | Clearance of Human microsome [1] | pIC50 (human TLR7) | SMILES
14 | 10.1 mL/min/kg | 7.06 | C[C@@H]1CN(c2ccc(C#N)c3ncccc23)C[C@H](C)N1Cc1ccc(N2CCNCC2CO)cc1 (stereo partly drawn) [Example 12, 5-[(3R,5S)-4-[[4-[2-(Hydroxymethyl)piperazin-1-yl]phenyl]methyl]-3,5-dimethyl-piperazin-1-yl]quinoline-8-carbonitrile]
15 | 12.4 mL/min/kg | 7.11 | C[C@@H]1CN(c2ccc(C#N)c3ncccc23)C[C@H](C)N1Cc1ccc(N2CC3CNCC(C2)O3)cn1 [Example 8, 5-[(3S,5R)-3,5-Dimethyl-4-[[5-(9-oxa-3,7-diazabicyclo[3.3.1]nonan-3-yl)-2-pyridyl]methyl]piperazin-1-yl]quinoline-8-carbonitrile]
16 | 10.5 mL/min/kg | 7.17 | C[C@@H]1CN(c2ccc(C#N)c3ncccc23)C[C@H](C)N1Cc1ncc(N2CCN(C(=O)CN(C)C)CC2)cn1 [Example 6, 5-[(3S,5R)-4-[[5-[4-[2-(Dimethylamino)acetyl]piperazin-1-yl]pyrimidin-2-yl]methyl]-3,5-dimethyl-piperazin-1-yl]quinoline-8-carbonitrile]
17 | 6.7 mL/min/kg | 7.24 | CC1CN(c2ccc(C#N)c3ncccc23)CCN1CC(=O)N1CCC(C2CCN(C)CC2)CC1 (centres unmarked) [Example 19, 5-[3-methyl-4-[2-[4-(1-methyl-4-piperidyl)-1-piperidyl]-2-oxo-ethyl]piperazin-1-yl]quinoline-8-carbonitrile]
18 | 9.4 mL/min/kg | 7.46 | C[C@@H]1CN(c2ccc(C#N)c3ncccc23)C[C@H](C)N1CC(=O)N1Cc2ccc(N3CCNCC3)cc2C1 [Example 16, 5-[(3R,5S)-3,5-Dimethyl-4-[2-oxo-2-(5-piperazin-1-ylisoindolin-2-yl)ethyl]piperazin-1-yl]quinoline-8-carbonitrile]
19 | 10.4 mL/min/kg | 7.80 | C[C@@H]1CN(c2ccc(C#N)c3ncccc23)C[C@H](C)N1Cc1ncc(N2CCNCC2)cn1 [Example 4, 5-[(3S,5R)-3,5-Dimethyl-4-[(5-piperazin-1-ylpyrimidin-2-yl)methyl]piperazin-1-yl]quinoline-8-carbonitrile]
